Test results published in US20150289512A1, “METHOD FOR PROMOTING PLANT GROWTH” (SUMITOMO CHEMICAL COMPANY, LIMITED, priority 2012, published 2015).

Tested on: Corn seeds (variety: Pioneer 120 31P41)
Test: Test Example 14: growth promotion under low-temperature stress by soil drench treatment of corn
Type: in vivo
Settings: Zea mays, 120 h, soil drench 20 ml, low-temperature stress 5 days at 2.5° C., health score 0-5, average of 4 individuals, read-out: Relative value of score (%- untreated control plot); for change in vivo at 10 ppm: concentration tested 10 ppm
Outline: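 7-day-old corn seedlings soil-drenched with 20 ml compound solution (from 1,000× DMSO stock in water; control 0.1% DMSO), grown 2 days at 27 °C, then 5 days at 2.5 °C, then 4 days recovery at 27 °C. Health scored 1–5 by number of leaves ≥⅔ healthy; mean of 4 plants.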

COC(=O)c1cc2cc(C(F)(F)F)ccc2o1 [Compound 3, methyl 5-(trifluoromethyl)benzofuran-2-carboxylate]
change in vivo at 10 ppm: > 5%

COC(=O)c1cc2ccccc2o1 [Compound 1]
change in vivo at 10 ppm: > 5%

COC(=O)c1nc2cc(C(F)(F)F)ccc2o1 [Compound 17, methyl 5-trifluoromethylbenzoxazole-2-carboxylate]
change in vivo at 3 ppm (concentration tested 3 ppm): > 5%

COC(=O)c1oc2ccc(C(F)(F)F)cc2c1O [Compound 50]
change in vivo at 10 ppm: > 5%

Cc1c(C(=O)O)oc2ccc(C(F)(F)F)cc12 [Compound 34]
change in vivo at 10 ppm: > 5%

O=C(O)c1oc2ccccc2c1C(F)(F)F [Compound 82]
change in vivo at 10 ppm: > 5%

NC(=O)c1oc2ccccc2c1C(F)(F)F [Compound 85]
change in vivo at 10 ppm: > 5%

COC(=O)c1cc2c(C(F)(F)F)cccc2o1 [Compound 45]
change in vivo at 10 ppm: > 5%
